2 compounds from patent US20110189308A1, “METHODS TO TREAT NEURODEGENERATIVE CONDITIONS OR DISEASES BY TARGETING COMPONENTS OF A PTEN SIGNALING PATHWAY” (priority 2008, published 2011) can be followed below.

SMILES strings stand for the structures.

For this assay, the system named is primary cortical cultures from (Atg7^flox/flox) mice. Nature of the assay: Process length in primary cortical cultures from Atg7 flox/flox mice transfected with Cre plasmid, with PI3K inhibitors. It is filed as cell-based, mouse. To be noted: FIG. 16D; 10 μM Wortmannin or 50 μM LY294002; n>45 neurons per group; mean±S.E. The text has this: FIGS. 16A-16D. Primary midbrain neuronal cultures from autophagy-deficient Dat^Cre/+Atg7^flox/flox mice display prolonged neurites. FIG. 16A, Elongated processes in TH-positive neurons in primary midbrain cultures from autophagy-deficient (Dat^Cre/+Atg7^flox/flox) mice relative to controls (Dat^Cre/+Atg7^flox/wild). FIG. 16B, The elongated process phenotype is also apparent in primary cortical cultures from (Atg7^flox/flox) mice transfected with Cre-recombinase encoding plasmid (along with GFP plasmid) compared to primary neurons transfected with GFP plasmid alone. […] FIG. 16C, Quantitation of process length as in (A). Dat^Cre/+Atg7^flox/wild versus Dat^Cre/+Atg7^flox/flox; 0.933±0.098 mm versus 1.704±0.139 mm, p<0.01. n>49 neurons per group in at least three separate independent experiments. FIG. 16D, quantification of data as in (C). Dat^Cre/+Atg7^flox/wild versus Dat^Cre/+Atg7^flox/flox; 0.428±0.036 mm versus 0.721±0.073 mm (DMSO), 0.198±0.018 mm versus 0.217±0.021 mm (Wortmannin, WM), and 0.158±0.015 mm versus 0.176±0.018 mm (LY294002, LY). n>45 neurons per group in at least three separate independent experiments. Bar, 50 μm.**, P<0.01.
Cell Culture. For midbrain culture, midbrain tissues were dissected from newborn mice (postnatal 0 day). The tissues were minced and digested in isolation medium containing 0.25% trypsin and ascorbic acid at 37° C. for 30 min. After the incubation, the digestion was stopped by 3% fetal bovine serum and 0.25% Dnase I. The tissues were triturated 20 times by glass-pipette and filtrated by cell strainer. They were centrifuged at 1,200 rpm for 5 min, and the supernatants were removed. The cells were suspended in plating medium containing 10% fetal bovine serum and plated on poly-D-lysine and laminin-coated 24-well plates. On the next day, the plating medium was replaced by culture medium containing 1% fetal bovine serum and antimitotic agent. The cells were kept on 37° C. for three more days. For cortical culture, cortical tissues were dissected from newborn mice (postnatal 0 day). The tissues were minced and digested in isolation medium containing 0.25% trypsin at 37° C. for 30 min. After the incubation, the digestion was stopped by 3% fetal bovine serum and 0.25% Dnase I. The tissues were triturated 20 times by glass-pipet and filtrated by cell strainer. They were centrifuged at 1,200 rpm for 5 min, and the supernatants were removed. The cells were suspended in plating medium containing 10% fetal bovine serum and plated on poly-D-lysine and laminin-coated 24-well plates. On second day, the cells were transfected with GFP or Cre expression plasmids. To transfect the plasmids, the cells were washed in 500 μl DMEM and added 30 μl of DNA/Ca/Phosphate complex (2 μg DNA/3.75 μl 1M CaCl2/15 μl 2× HBSS). […]

In the case of `O=c1cc(N2CCOCC2)oc2c(-c3ccccc3)cccc12` [LY294002], the “process length, Atg7-deficient neurons (Dat^Cre/+Atg7^flox/flox)” value was determined as 0.176±0.018 mm and the “process length, control neurons (Dat^Cre/+Atg7^flox/wild)” value is given as 0.158±0.015 mm.
Regarding `COC[C@H]1OC(=O)c2coc3c2[C@@]1(C)C1=C(C3=O)[C@@H]2CCC(=O)[C@@]2(C)C[C@H]1OC(C)=O` [Wortmannin], the “process length, Atg7-deficient neurons (Dat^Cre/+Atg7^flox/flox)” value stood at 0.217±0.021 mm and the “process length, control neurons (Dat^Cre/+Atg7^flox/wild)” value was 0.198±0.018 mm.
